Source: patent US10766902B2, “Wee-1 inhibiting pyrazolopyrimidinone compounds” (ALMAC DISCOVERY LIMITED, priority 2016, dated 2020)
Like-named read-outs stand apart in the source and are kept apart here.

Tests used:
[1] = molecular target: PRKACA (PKA) (Homo sapiens (Human), UniProt P17612); test: SelectScreen Kinase Profiling: PRKACA (PKA); type: biochemical; conditions: tested at 300-350 nM
Description: (§1) Table 4 below highlights the selectivity of a representative compound of the invention, Example 5, against a panel of 50 kinases (assessed using the Invitrogen SelectScreen® Kinase Profiling Service).

[2] = system: phosphorylation of Cdc2 at Tyr15; test: ELISA for phosphorylation of Cdc2 at Tyr15 in HT-29 / HCT-116 cells; type: cell-based; conditions: Homo sapiens
Experimental: Method 2: Determining the Effect of Compounds on the Phosphorylation of Cdc2 at Tyr15
The colorectal cancer cell lines HT-29 and HCT-116 were purchased from the ATCC and routinely maintained in McCoy's Medium (Invitrogen) supplemented with 10% Foetal Calf Serum.
The cells were trypsinised from their growing vessel and counted, 100 μL of cell suspension containing 6000 cells was pipetted into black 96 well Co-star plates and incubated overnight to allow adherence to the surface at a temperature of 37° C. and an atmosphere of 5% CO2. Test compounds were formulated in DMSO and diluted in foetal calf serum supplemented medium. Incubating medium was removed by aspiration and diluted drug supplemented medium added to each well.
The plate was returned to the incubator for an additional eight hours at 37° C. and an atmosphere of 5% CO2. Post incubation, the drug supplemented medium was aspirated from each well and the cells were washed once in ice-cold phosphate buffered saline (PBS). 100 μL of cell lysis buffer (Cell Signalling Technologies #9803) containing 20 mM Tris, 150 mM NaCl, 1 mM EDTA, 1 mM EGTA, 1% Triton-X100, 2.5 mM sodium pyrophosphate, 1 mM glycerophosphate, 1 mM Na3VO4 and 1 μg/mL leupeptin was added to each well of the 96 well plate and incubated at 4° C. for 30 min. The samples on the plate were snap frozen at −80° C. until required. Immediately before the continuation of the assay, the sample plate was thawed and centrifuged at 4° C. for 10 min and the supernatant transferred to secondary tubes or 96 well plate.
Cell supernatant was mixed in a ratio of 1:1 with sample dilutent buffer and vortexed for one minute. 100 μL of diluted sample was pipetted into pre-coated plates containing a rabbit polyclonal antibody for phospho-cdc2 (Tyr15) (Cell Signalling Technologies PathScan kit #7176). The plate was sealed and incubated overnight at 4° C.
The plate seal was removed and the well contents aspirated, followed by 3×5 min washes with 200 μL of diluted wash buffer. Between each wash the plate was tapped firmly onto blotting paper to ensure the removal of all kit solution. 100 μL of kit detection antibody was added to each well and the plate re-sealed and incubated at 37° C. for 1 h. Post incubation the plate was washed and processed in a similar manner to that previously described.
100 μL of horseradish peroxidise-linked secondary antibody was added to each test well, the plate sealed and incubated for thirty minutes at 37° C. Post incubation, the plate was washed as previously stated, followed by the addition of 100 μL of 3,3′,5,5′ tetramethylbenzidine (TMB reagent). The plate was sealed and incubated at RT for 30 min.
100 μL of stop solution was added to each well and the underside of the plate wiped with a lint-free tissue, prior to spectrophotometric determination. Absorbance from each well was read at 450 nm within 30 min of the addition of the stop solution.
The percentage of phospho-cdc2 was calculated compared to DMSO control and plotted versus the concentration of inhibitor using GraphPad Prism. Data was fitted using non-linear regression analysis and IC50 values generated.

[3] = molecular target: MET (cMet) (Homo sapiens (Human), UniProt P08581); test: SelectScreen Kinase Profiling: MET (cMet); type: biochemical; conditions: tested at 300-350 nM
MET (cMet), sequence (P08581 25-1390): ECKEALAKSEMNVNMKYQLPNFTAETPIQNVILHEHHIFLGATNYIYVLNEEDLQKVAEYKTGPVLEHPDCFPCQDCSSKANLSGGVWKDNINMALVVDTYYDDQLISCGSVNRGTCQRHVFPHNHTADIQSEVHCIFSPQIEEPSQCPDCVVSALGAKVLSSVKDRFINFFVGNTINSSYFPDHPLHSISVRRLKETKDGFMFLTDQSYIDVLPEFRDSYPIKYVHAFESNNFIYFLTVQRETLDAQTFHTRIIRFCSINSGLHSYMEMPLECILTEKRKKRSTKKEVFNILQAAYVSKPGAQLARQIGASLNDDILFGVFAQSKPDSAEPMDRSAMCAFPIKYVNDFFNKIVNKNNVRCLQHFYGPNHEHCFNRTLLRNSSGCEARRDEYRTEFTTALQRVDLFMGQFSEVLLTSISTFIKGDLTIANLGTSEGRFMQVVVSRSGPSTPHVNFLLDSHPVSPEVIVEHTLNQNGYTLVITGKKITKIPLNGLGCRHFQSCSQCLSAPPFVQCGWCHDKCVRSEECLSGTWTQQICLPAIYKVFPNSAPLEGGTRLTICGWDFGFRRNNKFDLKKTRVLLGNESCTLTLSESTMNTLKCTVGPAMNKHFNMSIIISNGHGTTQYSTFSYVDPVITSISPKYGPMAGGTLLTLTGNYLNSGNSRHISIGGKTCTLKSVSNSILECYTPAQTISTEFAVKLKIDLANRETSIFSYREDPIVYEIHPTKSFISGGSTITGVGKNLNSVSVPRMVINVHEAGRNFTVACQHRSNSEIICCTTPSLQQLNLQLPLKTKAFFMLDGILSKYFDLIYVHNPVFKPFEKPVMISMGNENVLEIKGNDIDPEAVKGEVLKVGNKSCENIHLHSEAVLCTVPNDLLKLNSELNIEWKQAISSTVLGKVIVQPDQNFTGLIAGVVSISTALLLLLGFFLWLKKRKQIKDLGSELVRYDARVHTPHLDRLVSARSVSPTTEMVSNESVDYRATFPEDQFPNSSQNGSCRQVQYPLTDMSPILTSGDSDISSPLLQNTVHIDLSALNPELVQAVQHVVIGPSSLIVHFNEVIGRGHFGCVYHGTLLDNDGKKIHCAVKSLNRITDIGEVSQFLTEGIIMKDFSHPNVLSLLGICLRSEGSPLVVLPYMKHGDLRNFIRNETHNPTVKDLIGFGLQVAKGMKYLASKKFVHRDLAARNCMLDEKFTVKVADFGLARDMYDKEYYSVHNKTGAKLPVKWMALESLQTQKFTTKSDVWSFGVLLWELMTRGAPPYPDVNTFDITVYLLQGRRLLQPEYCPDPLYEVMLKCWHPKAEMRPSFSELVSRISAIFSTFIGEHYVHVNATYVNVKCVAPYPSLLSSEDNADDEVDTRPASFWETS
Description: as §1

[4] = molecular target: MAPKAPK2 (Homo sapiens (Human), UniProt P49137); test: SelectScreen Kinase Profiling: MAPKAPK2; type: biochemical; conditions: tested at 300-350 nM
Description: as §1

[5] = molecular target: IRAK4 (Homo sapiens (Human), UniProt Q9NWZ3); test: SelectScreen Kinase Profiling: IRAK4; type: biochemical; conditions: tested at 300-350 nM
IRAK4, sequence (Q9NWZ3 whole entry): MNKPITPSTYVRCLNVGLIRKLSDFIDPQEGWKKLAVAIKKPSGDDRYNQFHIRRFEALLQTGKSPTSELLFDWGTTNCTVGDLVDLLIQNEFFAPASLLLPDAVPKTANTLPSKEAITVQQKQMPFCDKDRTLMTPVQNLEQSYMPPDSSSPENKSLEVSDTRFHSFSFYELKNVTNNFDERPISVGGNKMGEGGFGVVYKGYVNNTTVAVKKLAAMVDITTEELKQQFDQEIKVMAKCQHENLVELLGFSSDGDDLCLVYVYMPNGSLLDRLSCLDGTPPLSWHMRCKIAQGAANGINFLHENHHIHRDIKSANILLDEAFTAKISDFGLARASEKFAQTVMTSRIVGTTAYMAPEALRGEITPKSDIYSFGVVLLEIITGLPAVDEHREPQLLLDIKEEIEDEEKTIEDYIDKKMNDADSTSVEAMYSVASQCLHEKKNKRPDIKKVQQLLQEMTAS
Description: as §1

[6] = system: A498 cells; test: Cell viability (CellTiter-Glo), A498; type: cell-based; conditions: Homo sapiens, A498, 144 h; cell viability after 6 days
Experimental: (§2) All cell lines (HT29, A427, A498, SKLU-1) were obtained from the American Type Culture Collection (ATCC), maintained in the recommended media supplemented with 10% (v/v) FBS, 1% (v/v) Penicillin/streptomycin and kept at 37° C. in a humidified atmosphere with 5% CO2. Cells were seeded in 96 wp format typically at a seeding density of 3500-5000 cells/well and treated after 24 hours with increasing concentration of compound from 0 to 100 μM in ½ log unit increments. Cell viability was assessed after 72 hours (HT29, A427) or after 6 days (SKLU-1, A498) by CellTiter-Glo® as recommended by the manufacturer's instructions (Promega). Analysis and EC50 values were derived using GraphPadPrism.

[7] = molecular target: GSK3B (GSK3 beta) (Homo sapiens (Human), UniProt P49841); test: SelectScreen Kinase Profiling: GSK3B (GSK3 beta); type: biochemical; conditions: tested at 300-350 nM
Description: as §1

[8] = molecular target: RPS6KA3 (RSK2) (Homo sapiens (Human), UniProt P51812); test: SelectScreen Kinase Profiling: RPS6KA3 (RSK2); type: biochemical; conditions: tested at 300-350 nM
Description: as §1

[9] = system: HT29 cells; test: Cell viability (CellTiter-Glo), HT29; type: cell-based; conditions: Homo sapiens, HT-29; cell viability after 72 hours
Experimental: as §2

[10] = molecular target: FRAP1 (mTOR) (Homo sapiens (Human), UniProt P42345); test: SelectScreen Kinase Profiling: FRAP1 (mTOR); type: biochemical; conditions: tested at 300-350 nM
Description: as §1

[11] = molecular target: KDR (VEGFR2) (Homo sapiens (Human), UniProt P35968); test: SelectScreen Kinase Profiling: KDR (VEGFR2); type: biochemical; conditions: tested at 300-350 nM
KDR (VEGFR2), sequence (P35968 20-1356): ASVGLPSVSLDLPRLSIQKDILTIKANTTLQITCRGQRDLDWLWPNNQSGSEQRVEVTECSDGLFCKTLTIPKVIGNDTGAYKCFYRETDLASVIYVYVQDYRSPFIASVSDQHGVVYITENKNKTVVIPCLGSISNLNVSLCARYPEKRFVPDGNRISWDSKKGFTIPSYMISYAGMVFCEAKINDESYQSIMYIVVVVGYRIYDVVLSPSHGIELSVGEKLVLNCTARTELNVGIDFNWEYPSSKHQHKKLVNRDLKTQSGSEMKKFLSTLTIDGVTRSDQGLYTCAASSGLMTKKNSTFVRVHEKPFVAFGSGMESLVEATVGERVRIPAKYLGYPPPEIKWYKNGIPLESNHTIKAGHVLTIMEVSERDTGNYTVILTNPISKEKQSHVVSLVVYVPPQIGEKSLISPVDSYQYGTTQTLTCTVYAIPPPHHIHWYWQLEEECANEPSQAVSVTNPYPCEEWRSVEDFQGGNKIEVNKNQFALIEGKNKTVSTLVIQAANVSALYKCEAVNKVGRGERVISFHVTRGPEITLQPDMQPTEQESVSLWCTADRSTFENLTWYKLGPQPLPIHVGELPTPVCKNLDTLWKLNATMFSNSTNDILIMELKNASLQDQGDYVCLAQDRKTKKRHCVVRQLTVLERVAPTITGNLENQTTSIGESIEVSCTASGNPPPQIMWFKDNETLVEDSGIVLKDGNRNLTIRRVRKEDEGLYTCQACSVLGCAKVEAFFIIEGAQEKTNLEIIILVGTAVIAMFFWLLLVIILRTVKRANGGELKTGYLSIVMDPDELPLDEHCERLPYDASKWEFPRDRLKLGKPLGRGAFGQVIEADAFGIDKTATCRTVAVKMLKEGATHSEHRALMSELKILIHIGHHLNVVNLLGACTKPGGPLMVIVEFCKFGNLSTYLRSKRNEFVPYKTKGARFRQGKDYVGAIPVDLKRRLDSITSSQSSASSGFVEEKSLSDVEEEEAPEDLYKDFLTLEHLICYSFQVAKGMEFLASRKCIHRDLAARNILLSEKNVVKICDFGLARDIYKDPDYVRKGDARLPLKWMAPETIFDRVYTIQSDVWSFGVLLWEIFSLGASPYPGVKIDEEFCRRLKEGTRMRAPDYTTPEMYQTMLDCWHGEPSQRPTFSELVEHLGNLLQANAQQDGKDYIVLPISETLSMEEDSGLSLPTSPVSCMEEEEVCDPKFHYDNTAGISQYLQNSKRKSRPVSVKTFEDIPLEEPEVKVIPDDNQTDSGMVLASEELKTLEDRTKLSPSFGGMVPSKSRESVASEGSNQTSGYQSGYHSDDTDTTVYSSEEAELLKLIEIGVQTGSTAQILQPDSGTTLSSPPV
Description: as §1

[12] = molecular target: BTK (Homo sapiens (Human), UniProt Q06187); test: SelectScreen Kinase Profiling: BTK; type: biochemical; conditions: tested at 300-350 nM
BTK, sequence (Q06187 whole entry): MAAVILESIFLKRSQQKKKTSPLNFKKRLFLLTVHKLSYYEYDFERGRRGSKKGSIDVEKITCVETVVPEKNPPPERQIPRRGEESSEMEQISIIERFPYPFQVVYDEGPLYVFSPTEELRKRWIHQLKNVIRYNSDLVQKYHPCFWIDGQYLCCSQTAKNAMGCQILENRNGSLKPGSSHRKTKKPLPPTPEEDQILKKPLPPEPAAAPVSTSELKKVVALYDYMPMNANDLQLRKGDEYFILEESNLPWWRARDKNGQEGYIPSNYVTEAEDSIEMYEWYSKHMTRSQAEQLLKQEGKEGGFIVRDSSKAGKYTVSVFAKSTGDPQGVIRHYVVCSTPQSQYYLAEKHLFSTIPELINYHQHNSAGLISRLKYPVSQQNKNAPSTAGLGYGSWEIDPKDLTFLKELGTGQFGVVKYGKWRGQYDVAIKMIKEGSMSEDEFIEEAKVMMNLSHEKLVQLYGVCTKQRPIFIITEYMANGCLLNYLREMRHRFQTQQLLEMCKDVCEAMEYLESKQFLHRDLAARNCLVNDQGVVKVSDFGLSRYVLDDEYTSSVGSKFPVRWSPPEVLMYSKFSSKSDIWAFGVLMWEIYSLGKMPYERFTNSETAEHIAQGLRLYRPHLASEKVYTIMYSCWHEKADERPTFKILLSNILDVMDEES
Description: as §1

[13] = molecular target: MAPK14 (p38 alpha) (Homo sapiens (Human), UniProt Q16539); test: SelectScreen Kinase Profiling: MAPK14 (p38 alpha); type: biochemical; conditions: tested at 300-350 nM
MAPK14 (p38 alpha), sequence (Q16539 whole entry): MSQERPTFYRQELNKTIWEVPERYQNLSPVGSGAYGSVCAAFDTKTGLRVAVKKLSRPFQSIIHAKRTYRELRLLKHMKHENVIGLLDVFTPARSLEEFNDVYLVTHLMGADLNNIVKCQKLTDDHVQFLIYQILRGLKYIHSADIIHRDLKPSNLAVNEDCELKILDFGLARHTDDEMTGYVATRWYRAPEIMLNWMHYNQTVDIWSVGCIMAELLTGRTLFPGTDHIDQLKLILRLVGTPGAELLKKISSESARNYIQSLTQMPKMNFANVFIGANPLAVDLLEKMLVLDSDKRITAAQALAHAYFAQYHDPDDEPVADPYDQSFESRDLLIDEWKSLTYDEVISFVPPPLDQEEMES
Description: as §1

[14] = molecular target: LCK (Homo sapiens (Human), UniProt P06239); test: SelectScreen Kinase Profiling: LCK; type: biochemical; conditions: tested at 300-350 nM
[15] = system: panel of 50 kinases; test: Invitrogen SelectScreen Kinase Profiling Service, selectivity over the panel; type: biochemical; conditions: compared with compounds of the prior art
Description: as §1

[16] = molecular target: PLK1 (Homo sapiens (Human), UniProt P53350); test: SelectScreen Kinase Profiling: PLK1; type: biochemical; conditions: tested at 300-350 nM
PLK1, sequence (P53350 whole entry): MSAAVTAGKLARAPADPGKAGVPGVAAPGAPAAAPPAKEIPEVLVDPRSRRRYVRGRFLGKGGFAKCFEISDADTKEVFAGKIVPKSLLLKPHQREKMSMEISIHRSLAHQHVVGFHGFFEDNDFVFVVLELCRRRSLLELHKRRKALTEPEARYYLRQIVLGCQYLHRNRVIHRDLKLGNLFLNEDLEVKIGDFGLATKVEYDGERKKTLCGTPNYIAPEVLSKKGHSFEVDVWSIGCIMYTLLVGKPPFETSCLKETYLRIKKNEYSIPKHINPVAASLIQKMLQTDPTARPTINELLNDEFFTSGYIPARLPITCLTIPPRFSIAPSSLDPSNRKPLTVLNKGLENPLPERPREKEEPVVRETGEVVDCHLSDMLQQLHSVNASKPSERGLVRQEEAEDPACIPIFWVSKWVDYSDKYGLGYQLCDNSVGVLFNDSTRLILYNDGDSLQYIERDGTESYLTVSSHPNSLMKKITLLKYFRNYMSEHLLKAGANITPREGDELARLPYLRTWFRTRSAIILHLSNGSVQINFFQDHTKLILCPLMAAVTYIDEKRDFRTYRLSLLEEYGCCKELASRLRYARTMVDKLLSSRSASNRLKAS
Description: as §1

[17] = molecular target: PRKCB1 (PKC beta I) (Homo sapiens (Human), UniProt P05771); test: SelectScreen Kinase Profiling: PRKCB1 (PKC beta I); type: biochemical; conditions: tested at 300-350 nM
Description: as §1

[18] = system: A427 cells; test: Cell viability (CellTiter-Glo), A427; type: cell-based; conditions: Homo sapiens, A-427; cell viability after 72 hours
Experimental: as §2

[19] = molecular target: NTRK1 (TRKA) (Homo sapiens (Human), UniProt P04629); test: SelectScreen Kinase Profiling: NTRK1 (TRKA); type: biochemical; conditions: tested at 300-350 nM
Description: as §1

EC50 ([2]; 8 h, Table 2, colorectal cancer cells, eight hours incubation, read-out: ELISA p-CDC2 EC50): 12 nM
EC50 ([2]; Table 3, read-out: ELISA p-CDC2 EC50): 12 nM
EC50 ([2]; Table 5, data obtained as described in the experimental section of the current invention, read-out: ELISA/nM): 12 nM
EC50 [9]: 33 nM
selectivity against a panel of 50 kinases [15]: greater selectivity
SMILES: C=CCn1c(=O)c2cnc(Nc3ccc(N4CCN(C)CC4)cc3)nc2n1-c1cccc(N=S(C)(C)=O)n1 [Example 5, 1-(6-{[Dimethyl(oxo)-λ^6-sulfanylidene]amino}pyridine-2-yl)-6-{[4-(4-methylpiperazin-1-yl)phenyl]amino}-2-(prop-2-en-1-yl)-1H,2H,3H-pyrazolo[3,4-d]pyrimidin-3-one]
inhibition of PRKACA (PKA) [1]: − (inhibition under 50% (tested at 300-350 nM))
inhibition of MET (cMet) [3]: − (inhibition under 50% (tested at 300-350 nM))
inhibition of MAPKAPK2 [4]: − (inhibition under 50% (tested at 300-350 nM))
inhibition of IRAK4 [5]: − (inhibition under 50% (tested at 300-350 nM))
EC50 [6]: 25 nM
inhibition of GSK3B (GSK3 beta) [7]: − (inhibition under 50% (tested at 300-350 nM))
inhibition of RPS6KA3 (RSK2) [8]: − (inhibition under 50% (tested at 300-350 nM))
inhibition of FRAP1 (mTOR) [10]: − (inhibition under 50% (tested at 300-350 nM))
inhibition of KDR (VEGFR2) [11]: − (inhibition under 50% (tested at 300-350 nM))
inhibition of BTK [12]: − (inhibition under 50% (tested at 300-350 nM))
inhibition of MAPK14 (p38 alpha) [13]: − (inhibition under 50% (tested at 300-350 nM))
inhibition of LCK [14]: − (inhibition under 50% (tested at 300-350 nM))
inhibition of PLK1 [16]: − (inhibition under 50% (tested at 300-350 nM))
inhibition of PRKCB1 (PKC beta I) [17]: − (inhibition under 50% (tested at 300-350 nM))
EC50 [18]: 29 nM
inhibition of NTRK1 (TRKA) [19]: − (inhibition under 50% (tested at 300-350 nM))
